Assay results published in the kinase profiling compilation of Christmann-Franck et al. (2016).

Key:
Experiment in all cases: radiometric filter-binding kinase assay, Kinase HotSpot
Conditions in all cases: compound 0.5 µM; ATP 10 µM
ACVR1 (human) = ACVR1 (human) (UniProt Q04771)
AURKB (human) = AURKB (human) (UniProt Q96GD4)
BTK (human) = BTK (human) (UniProt Q06187)
CDK2 CCNE1 (human) = CDK2 CCNE1 (human) (UniProt P24941+P24864)
CDK7 CCNH MNAT1 (human) = CDK7 CCNH MNAT1 (human) (UniProt P50613+P51948+P51946)
CHEK1 (human) = CHEK1 (human) (UniProt O14757)
CHEK1 (human), sequence (O14757 whole entry, looked up): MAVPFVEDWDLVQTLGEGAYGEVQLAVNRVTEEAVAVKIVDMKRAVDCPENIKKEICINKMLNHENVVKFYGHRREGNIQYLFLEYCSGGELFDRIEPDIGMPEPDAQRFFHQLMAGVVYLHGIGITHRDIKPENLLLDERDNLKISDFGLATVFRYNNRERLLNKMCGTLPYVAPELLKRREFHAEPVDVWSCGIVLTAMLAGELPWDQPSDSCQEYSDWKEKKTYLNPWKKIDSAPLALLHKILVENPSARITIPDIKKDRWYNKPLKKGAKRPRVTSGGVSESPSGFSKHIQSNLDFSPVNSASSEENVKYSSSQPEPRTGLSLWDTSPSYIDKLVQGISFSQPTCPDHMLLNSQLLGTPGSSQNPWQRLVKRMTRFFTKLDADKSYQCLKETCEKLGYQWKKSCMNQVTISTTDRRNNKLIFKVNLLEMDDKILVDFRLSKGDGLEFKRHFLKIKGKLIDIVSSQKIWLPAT

CLK2 (human) = CLK2 (human) (UniProt P49760)
CSNK1D (human) = CSNK1D (human) (UniProt P48730)
EPHA3 (human) = EPHA3 (human) (UniProt P29320)
EPHB4 (human) = EPHB4 (human) (UniProt P54760)
ERBB4 (human) = ERBB4 (human) (UniProt Q15303)
FGFR2 (human) = FGFR2 (human) (UniProt P21802)
FRK (human) = FRK (human) (UniProt P42685)
HIPK2 (human) = HIPK2 (human) (UniProt Q9H2X6)
IRAK1 (human) = IRAK1 (human) (UniProt P51617)
[1] = target: JAK1 JH1 catalytic (human) (UniProt P23458)
MAPK3 (human) = MAPK3 (human) (UniProt P27361)
MATK (human) = MATK (human) (UniProt P42679)
MUSK (human) = MUSK (human) (UniProt O15146)
MYLK (human) = MYLK (human) (UniProt Q15746)
MYLK2 (human) = MYLK2 (human) (UniProt Q9H1R3)
NEK1 (human) = NEK1 (human) (UniProt Q96PY6)
NEK1 (human), sequence (Q96PY6 whole entry, looked up): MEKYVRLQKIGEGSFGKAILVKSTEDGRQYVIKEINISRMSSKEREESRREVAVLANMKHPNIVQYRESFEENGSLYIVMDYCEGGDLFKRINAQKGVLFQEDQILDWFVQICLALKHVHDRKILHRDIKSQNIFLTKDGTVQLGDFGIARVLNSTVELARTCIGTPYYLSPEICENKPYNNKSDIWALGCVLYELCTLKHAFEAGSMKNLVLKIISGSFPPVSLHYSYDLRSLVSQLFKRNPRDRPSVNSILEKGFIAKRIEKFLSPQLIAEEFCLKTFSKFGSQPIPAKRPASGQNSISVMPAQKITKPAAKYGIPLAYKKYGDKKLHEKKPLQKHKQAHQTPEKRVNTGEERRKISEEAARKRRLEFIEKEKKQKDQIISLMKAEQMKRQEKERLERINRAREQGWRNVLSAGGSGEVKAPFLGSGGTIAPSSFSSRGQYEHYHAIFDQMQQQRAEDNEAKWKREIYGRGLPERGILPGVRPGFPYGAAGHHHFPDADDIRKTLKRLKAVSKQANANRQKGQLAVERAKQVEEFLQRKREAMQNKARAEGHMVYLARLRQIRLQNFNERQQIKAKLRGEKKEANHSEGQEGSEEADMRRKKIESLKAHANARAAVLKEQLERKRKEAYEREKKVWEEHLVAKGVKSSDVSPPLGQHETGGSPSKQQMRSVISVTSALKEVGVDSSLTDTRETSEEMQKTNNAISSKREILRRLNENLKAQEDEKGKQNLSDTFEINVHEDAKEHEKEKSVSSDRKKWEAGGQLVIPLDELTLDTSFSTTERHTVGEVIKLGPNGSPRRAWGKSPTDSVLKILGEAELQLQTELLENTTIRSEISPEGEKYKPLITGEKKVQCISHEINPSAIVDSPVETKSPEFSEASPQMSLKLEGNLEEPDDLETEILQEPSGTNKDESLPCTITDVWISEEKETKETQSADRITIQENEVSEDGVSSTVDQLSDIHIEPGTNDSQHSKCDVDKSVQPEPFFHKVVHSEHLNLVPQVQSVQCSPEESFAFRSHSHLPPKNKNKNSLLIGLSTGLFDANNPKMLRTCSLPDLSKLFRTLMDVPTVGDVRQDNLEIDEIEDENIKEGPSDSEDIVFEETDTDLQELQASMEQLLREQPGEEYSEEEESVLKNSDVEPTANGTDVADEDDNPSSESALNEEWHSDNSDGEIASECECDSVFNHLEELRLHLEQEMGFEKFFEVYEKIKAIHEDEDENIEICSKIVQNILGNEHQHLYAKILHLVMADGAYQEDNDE

NEK2 (human) = NEK2 (human) (UniProt P51955)
NEK4 (human) = NEK4 (human) (UniProt P51957)
NEK6 (human) = NEK6 (human) (UniProt Q9HC98)
NEK9 (human) = NEK9 (human) (UniProt Q8TD19)
NEK9 (human), sequence (Q8TD19 whole entry, looked up): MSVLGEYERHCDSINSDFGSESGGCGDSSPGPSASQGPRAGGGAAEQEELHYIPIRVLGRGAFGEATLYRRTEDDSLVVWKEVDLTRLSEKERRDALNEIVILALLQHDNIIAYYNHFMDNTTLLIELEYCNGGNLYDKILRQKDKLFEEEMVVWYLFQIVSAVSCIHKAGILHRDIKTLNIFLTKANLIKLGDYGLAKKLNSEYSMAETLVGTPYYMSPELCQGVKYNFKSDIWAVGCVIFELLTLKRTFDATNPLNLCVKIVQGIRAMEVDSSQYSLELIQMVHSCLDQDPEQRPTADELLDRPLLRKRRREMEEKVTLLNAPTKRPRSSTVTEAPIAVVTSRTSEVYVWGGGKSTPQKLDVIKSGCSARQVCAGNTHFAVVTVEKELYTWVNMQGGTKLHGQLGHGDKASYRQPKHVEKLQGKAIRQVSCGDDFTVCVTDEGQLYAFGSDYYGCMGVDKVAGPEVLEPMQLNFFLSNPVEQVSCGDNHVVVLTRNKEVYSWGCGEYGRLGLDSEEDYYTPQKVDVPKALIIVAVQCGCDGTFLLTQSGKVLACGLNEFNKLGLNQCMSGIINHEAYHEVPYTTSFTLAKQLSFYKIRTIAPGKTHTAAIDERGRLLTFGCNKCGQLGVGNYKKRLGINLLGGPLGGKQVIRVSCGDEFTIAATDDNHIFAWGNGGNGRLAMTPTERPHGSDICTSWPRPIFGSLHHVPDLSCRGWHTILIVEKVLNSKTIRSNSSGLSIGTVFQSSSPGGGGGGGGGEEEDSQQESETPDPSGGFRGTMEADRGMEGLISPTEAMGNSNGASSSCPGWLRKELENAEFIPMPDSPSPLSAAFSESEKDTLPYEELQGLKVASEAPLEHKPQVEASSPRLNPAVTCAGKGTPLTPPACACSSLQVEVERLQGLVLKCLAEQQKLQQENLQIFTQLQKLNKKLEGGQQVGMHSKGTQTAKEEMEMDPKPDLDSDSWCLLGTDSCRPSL

NUAK2 (human) = NUAK2 (human) (UniProt Q9H093)
PDPK1 (human) = PDPK1 (human) (UniProt O15530)
PLK3 (human) = PLK3 (human) (UniProt Q9H4B4)
PRKCD (human) = PRKCD (human) (UniProt Q05655)
PRKCH (human) = PRKCH (human) (UniProt P24723)
PRKD2 (human) = PRKD2 (human) (UniProt Q9BZL6)
PTK2B (human) = PTK2B (human) (UniProt Q14289)
RET (human) = RET (human) (UniProt P07949)
RPS6KA5 KD2 (human) = RPS6KA5 KD2 (human) (UniProt O75582)
RPS6KA5 KD2 (human), sequence (O75582 whole entry, looked up): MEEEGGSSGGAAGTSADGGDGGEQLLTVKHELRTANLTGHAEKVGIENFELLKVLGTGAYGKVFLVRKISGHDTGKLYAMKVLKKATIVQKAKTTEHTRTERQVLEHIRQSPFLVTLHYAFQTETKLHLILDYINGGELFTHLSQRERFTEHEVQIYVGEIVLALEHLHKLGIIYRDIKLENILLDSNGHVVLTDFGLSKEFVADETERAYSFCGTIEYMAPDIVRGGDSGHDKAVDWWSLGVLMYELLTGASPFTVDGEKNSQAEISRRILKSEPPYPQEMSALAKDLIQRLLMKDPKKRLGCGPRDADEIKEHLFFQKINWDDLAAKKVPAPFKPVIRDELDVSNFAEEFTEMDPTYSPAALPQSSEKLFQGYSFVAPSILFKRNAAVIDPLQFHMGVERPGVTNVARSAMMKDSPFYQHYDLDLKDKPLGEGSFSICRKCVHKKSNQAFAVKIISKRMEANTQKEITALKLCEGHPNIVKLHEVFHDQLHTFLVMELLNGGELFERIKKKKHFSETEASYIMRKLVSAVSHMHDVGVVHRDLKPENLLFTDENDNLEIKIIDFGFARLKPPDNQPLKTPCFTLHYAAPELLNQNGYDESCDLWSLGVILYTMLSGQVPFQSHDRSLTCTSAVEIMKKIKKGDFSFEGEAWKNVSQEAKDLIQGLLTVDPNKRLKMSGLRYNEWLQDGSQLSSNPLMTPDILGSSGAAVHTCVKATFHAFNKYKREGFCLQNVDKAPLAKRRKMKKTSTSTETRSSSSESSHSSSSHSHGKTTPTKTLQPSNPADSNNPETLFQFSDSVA

SIK2 (human) = SIK2 (human) (UniProt Q9H0K1)
SRMS (human) = SRMS (human) (UniProt Q9H3Y6)
SRMS (human), sequence (Q9H3Y6 whole entry, looked up): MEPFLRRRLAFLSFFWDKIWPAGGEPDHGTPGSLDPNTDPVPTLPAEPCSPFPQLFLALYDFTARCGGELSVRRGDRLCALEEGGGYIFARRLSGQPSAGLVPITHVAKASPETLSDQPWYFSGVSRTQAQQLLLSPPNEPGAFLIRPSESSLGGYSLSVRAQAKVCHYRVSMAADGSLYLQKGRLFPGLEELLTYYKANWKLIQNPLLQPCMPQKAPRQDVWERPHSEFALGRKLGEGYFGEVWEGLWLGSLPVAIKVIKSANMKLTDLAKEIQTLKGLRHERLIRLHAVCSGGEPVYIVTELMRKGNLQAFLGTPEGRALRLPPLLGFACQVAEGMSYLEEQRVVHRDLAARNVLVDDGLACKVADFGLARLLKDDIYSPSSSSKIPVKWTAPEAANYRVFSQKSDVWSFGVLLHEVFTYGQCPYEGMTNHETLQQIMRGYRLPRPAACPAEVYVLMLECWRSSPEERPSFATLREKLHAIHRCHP

SRPK2 (human) = SRPK2 (human) (UniProt P78362)
TBK1 (human) = TBK1 (human) (UniProt Q9UHD2)
TEC (human) = TEC (human) (UniProt P42680)
TGFBR1 (human) = TGFBR1 (human) (UniProt P36897)
DAPK2 (human) = DAPK2 (human) (UniProt Q9UIK4)
DAPK2 (human), sequence (Q9UIK4 whole entry, looked up): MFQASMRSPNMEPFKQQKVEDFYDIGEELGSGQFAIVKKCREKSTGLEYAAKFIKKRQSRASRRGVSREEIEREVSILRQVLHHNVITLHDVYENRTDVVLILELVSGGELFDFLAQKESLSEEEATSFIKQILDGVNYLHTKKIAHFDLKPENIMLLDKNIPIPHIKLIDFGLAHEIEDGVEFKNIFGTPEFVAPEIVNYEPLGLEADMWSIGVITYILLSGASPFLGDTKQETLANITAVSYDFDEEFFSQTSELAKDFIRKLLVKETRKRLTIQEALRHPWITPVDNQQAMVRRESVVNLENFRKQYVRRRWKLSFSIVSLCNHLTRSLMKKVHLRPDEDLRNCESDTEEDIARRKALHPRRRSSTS

BTK (human), sequence (Q06187 whole entry, looked up): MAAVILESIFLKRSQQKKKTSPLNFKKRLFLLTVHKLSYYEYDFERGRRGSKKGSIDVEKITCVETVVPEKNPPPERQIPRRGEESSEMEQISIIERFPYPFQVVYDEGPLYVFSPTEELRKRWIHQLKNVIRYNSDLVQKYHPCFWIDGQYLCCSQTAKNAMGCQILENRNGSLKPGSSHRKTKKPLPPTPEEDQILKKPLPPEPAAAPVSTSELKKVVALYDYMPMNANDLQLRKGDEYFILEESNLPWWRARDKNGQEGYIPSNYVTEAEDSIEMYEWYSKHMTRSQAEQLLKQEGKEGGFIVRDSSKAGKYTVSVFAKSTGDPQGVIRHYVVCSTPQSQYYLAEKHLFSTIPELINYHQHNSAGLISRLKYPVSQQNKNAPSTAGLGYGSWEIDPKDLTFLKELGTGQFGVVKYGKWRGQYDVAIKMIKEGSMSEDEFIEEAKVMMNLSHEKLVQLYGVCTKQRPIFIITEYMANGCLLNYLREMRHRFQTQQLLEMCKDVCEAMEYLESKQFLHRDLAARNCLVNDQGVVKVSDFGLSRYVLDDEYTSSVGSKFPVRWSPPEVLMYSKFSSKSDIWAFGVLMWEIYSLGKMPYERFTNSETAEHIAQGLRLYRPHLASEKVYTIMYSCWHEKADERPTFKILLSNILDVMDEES

Compound: Cn1cc(/C=C2\C(=O)Nc3ccc(S(N)(=O)=O)cc32)c2ccccc21
- residual activity (ACVR1 (human)): 111%
- residual activity (AURKB (human)): 10.5%
- residual activity (BTK (human)): 30.4%
- residual activity (CDK2 CCNE1 (human)): 77.9%
- residual activity (CDK7 CCNH MNAT1 (human)): 73.7%
- residual activity (CHEK1 (human)): 19.5%
- residual activity (CLK2 (human)): 38.1%
- residual activity (CSNK1D (human)): 102%
- residual activity (EPHA3 (human)): 80.9%
- residual activity (EPHB4 (human)): 57.4%
- residual activity (ERBB4 (human)): 81.3%
- residual activity (FGFR2 (human)): 50.5%
- residual activity (FRK (human)): 97.1%
- residual activity (HIPK2 (human)): 82.6%
- residual activity (IRAK1 (human)): 14.2%
- residual activity [1]: 83.9%
- residual activity (MAPK3 (human)): 109%
- residual activity (MATK (human)): 103%
- residual activity (MUSK (human)): 105%
- residual activity (MYLK (human)): 95%
- residual activity (MYLK2 (human)): 53.6%
- residual activity (NEK1 (human)): 68.5%
- residual activity (NEK2 (human)): 89.1%
- residual activity (NEK4 (human)): 81%
- residual activity (NEK6 (human)): 98.6%
- residual activity (NEK9 (human)): 67.3%
- residual activity (NUAK2 (human)): 102%
- residual activity (PDPK1 (human)): 95%
- residual activity (PLK3 (human)): 99%
- residual activity (PRKCD (human)): 91.3%
- residual activity (PRKCH (human)): 102%
- residual activity (PRKD2 (human)): 87.2%
- residual activity (PTK2B (human)): 43.1%
- residual activity (RET (human)): 1.93%
- residual activity (RPS6KA5 KD2 (human)): 80.9%
- residual activity (SIK2 (human)): 81.4%
- residual activity (SRMS (human)): 99.8%
- residual activity (SRPK2 (human)): 51.4%
- residual activity (TBK1 (human)): 21.6%
- residual activity (TEC (human)): 157%
- residual activity (TGFBR1 (human)): 97.8%

Compound: COc1cc2c(Nc3ccc(Br)cc3F)ncnc2cc1OCC1CCN(C)CC1
- residual activity (ACVR1 (human)): 208%
- residual activity (AURKB (human)): 95.5%
- residual activity (BTK (human)): 17.6%
- residual activity (CDK2 CCNE1 (human)): 101%
- residual activity (CDK7 CCNH MNAT1 (human)): 102%
- residual activity (CHEK1 (human)): 94.4%
- residual activity (CLK2 (human)): 89.7%
- residual activity (CSNK1D (human)): 94.4%
- residual activity (DAPK2 (human)): 93.3%
- residual activity (EPHA3 (human)): 57.7%
- residual activity (EPHB4 (human)): 13%
- residual activity (ERBB4 (human)): 45.6%
- residual activity (FGFR2 (human)): 38.4%
- residual activity (FRK (human)): 79.5%
- residual activity (HIPK2 (human)): 99.4%
- residual activity (IRAK1 (human)): 87.7%
- residual activity [1]: 99.1%
- residual activity (MAPK3 (human)): 102%
- residual activity (MATK (human)): 101%
- residual activity (MUSK (human)): 94.6%
- residual activity (MYLK (human)): 94.2%
- residual activity (MYLK2 (human)): 97.1%
- residual activity (NEK1 (human)): 123%
- residual activity (NEK2 (human)): 103%
- residual activity (NEK4 (human)): 102%
- residual activity (NEK6 (human)): 96.9%
- residual activity (NEK9 (human)): 101%
- residual activity (NUAK2 (human)): 100%
- residual activity (PDPK1 (human)): 91.3%
- residual activity (PLK3 (human)): 95%
- residual activity (PRKCD (human)): 103%
- residual activity (PRKCH (human)): 117%
- residual activity (PRKD2 (human)): 92%
- residual activity (PTK2B (human)): 99.5%
- residual activity (RPS6KA5 KD2 (human)): 101%
- residual activity (SIK2 (human)): 17.6%
- residual activity (SRMS (human)): 98.8%
- residual activity (SRPK2 (human)): 106%
- residual activity (TBK1 (human)): 99.9%
- residual activity (TEC (human)): 91.6%
- residual activity (TGFBR1 (human)): 102%

Compound: N#Cc1c(NC(=O)c2cccc3ccccc23)sc2c1CCCC2
- residual activity (ACVR1 (human)): 72.9%
- residual activity (AURKB (human)): 103%
- residual activity (BTK (human)): 95%
- residual activity (CDK2 CCNE1 (human)): 89.1%
- residual activity (CDK7 CCNH MNAT1 (human)): 101%
- residual activity (CHEK1 (human)): 104%
- residual activity (CLK2 (human)): 101%
- residual activity (CSNK1D (human)): 106%
- residual activity (DAPK2 (human)): 105%
- residual activity (EPHA3 (human)): 103%
- residual activity (EPHB4 (human)): 99.5%
- residual activity (ERBB4 (human)): 99.8%
- residual activity (FGFR2 (human)): 110%
- residual activity (FRK (human)): 104%
- residual activity (IRAK1 (human)): 104%
- residual activity [1]: 108%
- residual activity (MAPK3 (human)): 97.1%
- residual activity (MATK (human)): 92.7%
- residual activity (MUSK (human)): 94.8%
- residual activity (MYLK (human)): 98.7%
- residual activity (MYLK2 (human)): 101%
- residual activity (NEK1 (human)): 93.4%
- residual activity (NEK2 (human)): 88.1%
- residual activity (NEK4 (human)): 94.6%
- residual activity (NEK6 (human)): 101%
- residual activity (NEK9 (human)): 96%
- residual activity (NUAK2 (human)): 76.7%
- residual activity (PDPK1 (human)): 92.1%
- residual activity (PLK3 (human)): 99.6%
- residual activity (PRKCD (human)): 94.1%
- residual activity (PRKCH (human)): 97.9%
- residual activity (PRKD2 (human)): 126%
- residual activity (PTK2B (human)): 108%
- residual activity (RET (human)): 105%
- residual activity (RPS6KA5 KD2 (human)): 99.6%
- residual activity (SIK2 (human)): 101%
- residual activity (SRMS (human)): 106%
- residual activity (SRPK2 (human)): 99.2%
- residual activity (TBK1 (human)): 94%
- residual activity (TEC (human)): 111%
- residual activity (TGFBR1 (human)): 101%

Compound: CN[C@@H]1C[C@H]2O[C@@](C)([C@@H]1OC)n1c3ccccc3c3c4c(c5c6ccccc6n2c5c31)C(=O)NC4
- residual activity (CHEK1 (human)): 1.63%
- residual activity (FRK (human)): 5.5%
- residual activity [1]: 2.07%
- residual activity (MUSK (human)): 12.2%
- residual activity (NEK1 (human)): 3.99%
- residual activity (NEK4 (human)): 46.8%
- residual activity (PDPK1 (human)): 4.41%
- residual activity (RPS6KA5 KD2 (human)): 1.24%
- residual activity (TBK1 (human)): -0.455%

Compound: N/C(=N\N=C/c1ccc(-c2cccc([N+](=O)[O-])c2)o1)N[N+](=O)[O-]
- residual activity (ACVR1 (human)): 98%
- residual activity (AURKB (human)): 99.1%
- residual activity (BTK (human)): 110%
- residual activity (CDK7 CCNH MNAT1 (human)): 100%
- residual activity (CLK2 (human)): 88.3%
- residual activity (CSNK1D (human)): 99.8%
- residual activity (DAPK2 (human)): 80.1%
- residual activity (EPHA3 (human)): 99.3%
- residual activity (EPHB4 (human)): 91.6%
- residual activity (ERBB4 (human)): 103%
- residual activity (FGFR2 (human)): 104%
- residual activity (FRK (human)): 90.1%
- residual activity (HIPK2 (human)): 103%
- residual activity [1]: 102%
- residual activity (MAPK3 (human)): 88.4%
- residual activity (MATK (human)): 94.3%
- residual activity (MUSK (human)): 94.4%
- residual activity (MYLK (human)): 92.5%
- residual activity (MYLK2 (human)): 100%
- residual activity (NEK1 (human)): 97.7%
- residual activity (NEK2 (human)): 88.9%
- residual activity (NEK4 (human)): 103%
- residual activity (NEK6 (human)): 93.4%
- residual activity (NEK9 (human)): 91.8%
- residual activity (NUAK2 (human)): 95.2%
- residual activity (PDPK1 (human)): 94.6%
- residual activity (PLK3 (human)): 96.8%
- residual activity (PRKCD (human)): 94.2%
- residual activity (PRKCH (human)): 98.1%
- residual activity (PRKD2 (human)): 94.3%
- residual activity (PTK2B (human)): 91.5%
- residual activity (RET (human)): 99.9%
- residual activity (RPS6KA5 KD2 (human)): 101%
- residual activity (SIK2 (human)): 91.6%
- residual activity (SRMS (human)): 90.2%
- residual activity (SRPK2 (human)): 101%
- residual activity (TBK1 (human)): 104%
- residual activity (TEC (human)): 147%
- residual activity (TGFBR1 (human)): 96.6%
